A short description of data set [1]: Dynamic PET/CT scan in healthy rhesus monkey, biodistribution and clearance. Type of data set: in vivo, male rhesus monkey. The settings on record: i.v. Here is the method: Healthy non-human primate: A 3 h dynamic PET/CT scan was performed in a healthy male rhesus monkey to determine whole body biodistribution and clearance properties in an additional species. Approximately 6 mCi of ^18F-labeled anti-granzyme-B peptide was intravenously injected in the animal. Attenuation correction was performed using low-dose CT scan. Regions of interests (ROI) were manually drawn over tissues of interest to determine mean standardized uptake value (SUVmean).

Data set [2] has as its target human Granzyme B (hGranzyme B) (Homo sapiens, UniProt P10144). The experiment in a line: Surface Plasmon Resonance (SPR) binding to human Granzyme B. Particulars: Table 8, 25° C. Here is the method: All reagents and solvents were purchased from commercial sources and used “as is” unless otherwise noted. Reaction progress and synthetic intermediate analysis were assessed by LCMS (UV detection with ESI, APCI, or other mass detection) when applicable using a MeCN/water gradient with either TFA, formic acid, or NH4HCO3 modifier. Silica gel and reverse-phase flash column chromatography were conducted with commercially available pre-packed columns. Reverse-phase preparative HPLC purification was performed on preparative HPLC instruments with UV and MS detection using a MeCN/water gradient with either TFA, formic acid, or NH4OH modifier. Unless otherwise noted, all KD data presented in tables refers to the surface plasmon resonance assay that is described in the Biological Assay section.
The kinetics of test peptide binding to human Granzyme B (hGranzyme B) was determined by SPR. All experiments were performed at 25° C. using the Biacore 8k+ instrument (Cytiva, Marlborough, MA). The Biacore 8k+ Insight Evaluation Software Version 3.0 was used to fit the data with a 1:1 binding model to determine the association rate constant ka (M^−1s^−1, where “M” equals molar and “s” equals seconds) and the dissociation rate constant kd (s^−1). These rate constants were used to calculate the equilibrium dissociation constant, KD (M)=kd/ka. To measure the binding kinetics of peptides of interest, surfaces were prepared by a capture method to a Series S Streptavidin (SA) chip using a 1×HBS-EP+ running buffer (Cytiva). hGranzyme B was diluted to 10 μg/mL in 1×HBS-EP+ and flowed over spot 2 of each flow cell on the chip at a flow rate of 10 μl/min for 20 s to achieve a level of capture of ~1100 RU. An unmodified spot 1 of each flow cell was used as a matrix binding control or reference surface. Binding kinetics were measured using single cycle kinetics at 25° C. by injecting 5 concentrations with 3-fold serial dilutions of test peptides from […] to 1 μM. Compound dilutions were performed manually in a running buffer containing 1×HBS-EP+(Cytiva), and a final concentration of 2% DMSO. The interaction analyses over hGranzyme B, were performed using a 120 s association time and a 900 s dissociation time. All experiments were conducted at a flow rate of […] with a data collection rate of 10 Hz.
Peptide dilution series included 2 zero concentration points (no compound) which were averaged and subtracted from the peptide concentration injection as DMSO control responses. Binding data acquired from the reference surface (matrix binding control) were subtracted from the binding data for hGranzyme B surface on the chip to determine specific binding. Next, the association phase data were solvent corrected to account for any signal fluctuation throughout the experiment due to subtle DMSO concentration differences. Corrected response data were analyzed using the Biacore 8k+ Evaluation Software Version 3.0 according to the manufacturer. SPR data for representative compounds of the disclosure are found in Table 8.

In a further data set the target is Human granzyme B (Homo sapiens, UniProt P10144). As to the kind of experiment: Granzyme B Biochemical Inhibition Assay. The settings on record: granzyme B 8 nM; 30 min preincubation, room temperature. As to the method: Compounds to be tested as inhibitors were manually prepared in a 2-fold serial dilutions in DMSO, spanning 200 μM to 0.39 μM in a Labcyte Echo qualified low dead volume 384-well plate. Then an ECHO acoustic liquid handler was used to dispense 125 nL of each compound from 384-well plate into a PerkinElmer Proxiplate-384 Plus F assay plate. For the positive control of inhibitor, (S)-3-((3S,6S)-3-((2S,3S)-2-acetamido-3-methylpentanamido)-4-oxo-1,2,3,4,6,7-hexahydroazepino[3,2,1-hi]indole-6-carboxamido)-4-oxobutanoic acid (see C. A. Willoughby et al./Bioorg. Med. Chem. Lett. 12 (2002) 2197-2200 2199) was used at 2 μM assay concentration. For no inhibition control, DMSO was used. Each compound was run in duplicate.
Once the compounds were dispensed in the plates, enzyme mix and substrate mix were prepared. […] Subsequently, 3.125 μL of substrate mix were added to each well using the BioRaptr, reaching a final assay volume of 12.5 μL. and the plate was monitored using a Pherastar FS by 1 read per minute for 30 minutes in fluorescence mode, excitation wavelength is 400 nm and emission wavelength is 510 nm.
The data analysis was performed first in excel, where the slopes of the measured fluorescence from each sample were determined using MARS software from BMG LABTECH. […]

pIC50, pKd: −log10 of the molar value. Bridge positions count the residues as written; N and C are the ends. Square brackets hold non-standard residues; d marks the D form. Peptide text beside a SMILES is read from it. * marks the point of attachment. X1 = O=C(O)CN1CCN(CC(=O)O)CC(Cc2ccc(NC(=S)*)cc2)N(CC(=O)O)CC1; NMeF = CN[C@@H](Cc1ccccc1)C(=O)O

Chain of human Granzyme B (hGranzyme B) (P10144 21-247): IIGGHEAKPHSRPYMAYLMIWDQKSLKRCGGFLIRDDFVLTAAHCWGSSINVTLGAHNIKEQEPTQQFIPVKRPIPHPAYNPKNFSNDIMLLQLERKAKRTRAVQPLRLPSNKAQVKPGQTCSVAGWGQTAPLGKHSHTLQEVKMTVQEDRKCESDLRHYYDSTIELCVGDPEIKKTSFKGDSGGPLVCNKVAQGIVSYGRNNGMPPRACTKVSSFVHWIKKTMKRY
Chain of Human granzyme B (P10144 21-247): as above

As for `CC(C)[C@@H]1NC(=O)[C@H](CC(=O)O)NC(=O)[C@H](Cc2ccc(O)cc2)NC(=O)[C@H](Cc2ccc(O)cc2)NC(=O)[C@H](Cc2ccccc2)N(C)C(=O)[C@H](Cc2ccccc2)N(C)C(=O)[C@H](Cc2ccccc2)NC(=O)CSC[C@@H](C(=O)NCC(=O)NCC(=O)N[C@@H](CCCCNC(=S)Nc2ccc(CC3CN(CC(=O)O)CCN(CC(=O)O)CCN3CC(=O)O)cc2)C(N)=O)NC(=O)[C@H](Cc2c[nH]cn2)NC(=O)[C@H](Cc2ccccc2)N(C)C(=O)[C@H](Cc2ccc(O)cc2)NC(=O)[C@H](C(C)C)NC(=O)[C@H](CC(=O)O)NC(=O)[C@H](C(C)C)NC(=O)[C@H](CC(=O)O)NC1=O` (stereo partly drawn) [Compound 6a, *F.NMeF.NMeF.Y.Y.D.V.D.V.D.V.Y.NMeF.H.*C.G.G.K(^18F-AlF-NOTA)-NH2] ({CH2CO}-F[NMeF][NMeF]YYDVDVDVY[NMeF]HCGGK(X1)-NH2; thioether N-15), the excretion route result in data set [1] (PET images) is listed as “primarily excreted through renal route”. The blood pool clearance entry in data set [1] (approximately 6 mCi, PET) is “rapid blood pool clearance”. The liver uptake duration entry in data set [1] (quantitative analyses of PET images) is listed as “prolonged liver uptake”. Moreover, the “uptake in liver and kidneys” value in data set [1] (within first 20 minutes of injection) is “high uptake in liver and kidneys within first 20 minutes of injection”.
In the case of `CC(C)[C@@H]1NC(=O)[C@H](CC(=O)O)NC(=O)[C@H](Cc2ccc(O)cc2)NC(=O)[C@H](Cc2ccc(O)cc2)NC(=O)[C@H](Cc2ccccc2)N(C)C(=O)[C@H](Cc2ccccc2)N(C)C(=O)[C@H](Cc2ccccc2)NC(=O)CSC[C@@H](C(=O)NCC(N)=O)NC(=O)[C@H](Cc2c[nH]cn2)NC(=O)[C@H](Cc2ccccc2)N(C)C(=O)[C@H](Cc2ccc(O)cc2)NC(=O)[C@H](C(C)C)NC(=O)[C@H](CC(=O)O)NC(=O)[C@H](C(C)C)NC(=O)[C@H](CC(=O)O)NC1=O` [Compound 1a, *F.NMeF.NMeF.Y.Y.D.V.D.V.D.V.Y.NMeF.H.*C.G-NH2] ({CH2CO}-F[NMeF][NMeF]YYDVDVDVY[NMeF]HCG-NH2; thioether N-15), in data set [2], the pKd (as a rule, the Kd on a negative log10 scale, so that one unit is a factor of ten) was 9.30. In addition, the pIC50 (as a rule, the IC50 on a negative log10 scale, so that one unit is a factor of ten) against Human granzyme B is 6.95.

These data come from patent US20260297134A1, “CYCLIC PEPTIDES AS PET IMAGING AGENTS OF GRANZYME B” (Merck Sharp & Dohme LLC, priority 2023, published 2026).
